Where “and” joins values, the source holds several entries; their conditions need not be identical. Equal entries are not always repeated.
Experiments:
[1] = tested on: Rattus norvegicus; conditions: oral; for NOAEL: subchronic
[2] = tested on: Rattus norvegicus; conditions: for LD50 / LC50: acute
[3] = tested on: Rattus norvegicus; conditions: developmental; duration: 1 days; oral; gavage; M/F; Wistar; developmental
[4] = tested on: Rattus norvegicus; conditions: M/F
[5] = subchronic, duration: 90 days, oral, gavage, Sprague-Dawley

Compound O=P([O-])(O)CN(CCN(CCN(CP(=O)(O)O)CP(=O)(O)O)CP(=O)(O)O)CP(=O)(O)O.[Na+] has an NOAEL ([1]; duration: 90 days, diet, M/F, Wistar, Hematology: RBC increase, MCV decrease, MCH decrease, HGB decrease, MCHC decrease + Absolute Organ Weight: Liver decrease) of 96 mg/kg-day.
Clc1ccc(OCCOCc2ccc(COCCOc3ccc(Cl)cc3)cc2)cc1 was tested, and the NOEL ([1]; short-term, duration: 28 days, gavage, M/F, Body Weight Changes: Body weight gain decrease + Food Consumption: decrease + Blood Chemistry: ALB increase, A/G increase + Organ Weight: …) was 8 mg/kg-day.
NC1=CC(=O)C(N=Nc2ccc(Nc3ccc(N=Nc4c(S(=O)(=O)[O-])cc5c(c4N)C(=O)C(N=Nc4ccccc4)C(S(=O)(=O)[O-])=C5)cc3S(=O)(=O)[O-])cc2)C=C1.[Na+].[Na+].[Na+] (configuration not stated) gave an NOEL ([1]; short-term, duration: 28 days, gavage, M/F, Hematology: MET-HGB increase, RET increase, RBC decrease, HGB decrease, MCHC decrease, MCV increase, PCV decrease, MCH increase, HEINZ …) of less than 50 mg/kg-day.
In the case of CC(=O)Nc1cc(Nc2nc(Nc3ccc(N=Nc4cccc(S(=O)(=O)[O-])c4)c(NC(C)=O)c3)nc(N3CCOCC3)n2)ccc1N=Nc1cccc(S(=O)(=O)[O-])c1.[Na+].[Na+], the NOEL ([1]; short-term, duration: 28 days, gavage, M/F, Urinalysis: Bil increase + Blood Chemistry: T-Bil increase, UA increase) is reported as 200 mg/kg-day.
For CC(C)(c1ccc(O)cc1)c1ccc(C(C)(c2ccc(O)cc2)c2ccc(O)cc2)cc1, the NOEL ([1]; short-term, duration: 28 days, gavage, M/F, Crj:CD, Hematology: Plt increase + Blood Chemistry: GPT increase, TG increase, Cho increase, TP decrease, LH decrease, , FSH decrease, Estradiol …) was 300 mg/kg-day.
Cc1cc(N(C)C)ccc1[P+](=O)[O-].[Na+] gave an NOAEL ([2]; reproduction developmental, duration: 14 days, injection, subcutaneous, F, Wistar) of 50 mg/kg-day.
For CCCCCCCCCCCCOCCOS(=O)(=O)[O-].[Na+], the LD50 ([2]; oral) was 1600 mg/kg.
With CCCCCCCCOC(=O)CCc1cc(-n2nc3ccccc3n2)c(O)c(C(C)(C)C)c1 the NOEL ([1]; short-term, duration: 28 days, gavage, M/F, Body Weight Changes: Body weight gain decrease + Hematology: PT increase + Blood Chemistry: GOT increase, GPT increase, T-CHO increase, TG …) was 2 mg/kg-day.
CCN(CC)c1ccc2c(c1)Oc1cc(C)c(Nc3ccc(C)cc3C)cc1C21OC(=O)c2ccccc21 (configuration not stated) showed an LD50 ([2]; dermal, semiocclusive, Sprague-Dawley) greater than 2000 mg/kg and an LD50 ([2]; oral, gavage, Sprague-Dawley) greater than 10000 mg/kg.
Compound CCN(CC)c1ccc2c(c1)Oc1cc(C)c(Nc3ccccc3)cc1C21OC(=O)c2ccccc21 (configuration not stated) has an LD50 ([2]; oral, gavage, Sprague-Dawley) greater than 2000 mg/kg.
For CCN1CCc2c3n(c4ccccc24)C(C(=O)OC)=CCC31.Cl (configuration not stated), the NOEL ([1]; chronic, duration: 91 days, gavage, M/F, CD, Clinical Observation: Salivation Greenish urine + Urinalysis: Greenish, or Dark green urine Quarry placoid crystal Urinary cast Volume …) was 50 mg/kg-day.
Compound CC1=C(C)C(=O)C(C(CCCCCC(=O)O)c2ccccc2)=C(C)C1=O (racemic) has an NOAEL ([1]; duration: 13 weeks, gavage, M/F, Fischer 344, Body Weight Changes: decrease + Food Consumption: decrease + Hematology: RBC decrease, HCT decrease, HGB decrease, MCV increase, MCH …) of 20 mg/kg-day.
In the case of CC(O)CN(CCN(CC(C)O)CC(C)O)CC(C)O (configuration not stated) [1,1',1'',1'''-(Ethylenedinitrilo)tetrakis(2-propanol)], the LD50 ([2]; oral, gavage) is reported as 11200 mg/kg and the NOAEL ([2]; subchronic, duration: 3 months, oral, diet, Harlan) is reported as ≥ 600 mg/kg-day and ≤ 900 mg/kg-day.
C[Si](O[Si](C)(C)C)O[Si](C)(C)C [1,1,1,3,5,5,5-Heptamethyltrisiloxane] gave an NOAEL ([1]; duration: 35 days, gavage, M, Wistar, Clinical Observation: Salivation / No description about sex and dosages Pushing the head through the bedding material / No description …) of 50 mg/kg-day.
For Clc1cccc(Cl)c1 [1,3-Dichlorobenzene], the LD50 ([2]; oral, gavage, Sprague-Dawley) was 1200 mg/kg and 1100 mg/kg and 1000 mg/kg, the NOAEL ([2]; reproduction developmental, duration: 10 days, oral, gavage, F, Sprague-Dawley) was 200 mg/kg-day and the NOAEL ([2]; reproduction developmental, duration: 10 days, oral, gavage, Sprague-Dawley, generation: F1) was 200 mg/kg-day. For the same compound, the NOAEL ([2]; reproduction developmental, duration: 90 days, oral, gavage, Sprague-Dawley, generation: F0) was 147 mg/kg-day, the LOAEL [2, 5] was 147 mg/kg-day and the NOAEL [2, 5] was 37 mg/kg-day.
With OCCN1CCNCC1 [1-Piperazineethanol] the LD50 ([2]; oral, gavage) was 2000 mg/kg, the NOAEL ([2]; short-term, duration: 7 days, oral, diet, F, Wistar) was 1610 mg/kg-day and the NOAEL ([2]; short-term, duration: 7 days, oral, diet, M, Wistar) was 3720 mg/kg-day.
Compound Brc1ccc(Oc2cc(Br)c(Br)cc2Br)c(Br)c1 [2,2',4,4',5-Pentabromodiphenyl ether] has an LOAEL [3] of 0.06 mg/kg-day, an LOEL ([4]; developmental, injection, intraperitoneal, Wistar, generation: F1, F1: Y maze) of 30 mg/kg-day and an LOEL ([4]; reproduction developmental, oral, gavage, Crl:CD(SD), generation: P0, P0: Morris water maze (latency, significant trial)) of 2 mg/kg-day.
With CC(C)(C)c1ccc(O)c(C(C)(C)C)c1 [2,4-Di-tert-butylphenol] the LD50 ([2]; oral, gavage, albino) was 1500 mg/kg and 1300 mg/kg and 2100 mg/kg.
With CCN(CC#N)c1cccc(C)c1 [2-(Ethyl(3-methylphenyl)amino)acetonitrile] the NOAEL ([2]; developmental, duration: 38 days, oral, gavage, Sprague-Dawley) was 150 mg/kg-day, the NOAEL ([2]; reproduction developmental, duration: 38 days, oral, gavage, Sprague-Dawley, generation: F0) was 25 mg/kg-day and the NOAEL ([2]; reproduction developmental, duration: 38 days, oral, gavage, Sprague-Dawley, generation: F1) was 150 mg/kg-day.
For CC(CN)CCCN (configuration not stated) [2-Methylpentanediamine], the LC50 ([2]; inhalation, CRL:CD BR) was 4.1 µg/mL and 2.9 µg/mL, the LD50 ([2]; oral, gavage, Crl:CD(SD)) was 1690 mg/kg and the NOAEL ([2]; short-term, duration: 28 days, oral, diet, F, CRL:CD BR) was 3000 ppm. For the same compound, the NOAEL ([2]; short-term, duration: 28 days, oral, diet, M, CRL:CD BR) was 10000 ppm.
CCN(CC)c1ccc(C(=O)c2ccccc2C(=O)O)c(O)c1 [2-[4-(Diethylamino)-2-hydroxybenzoyl]benzoic acid] showed an LD50 ([2]; oral, gavage, Sprague-Dawley) greater than 5000 mg/kg.
For CC(C)(c1ccccc1)c1ccc(O)cc1 [4-Cumylphenol], the LD50 ([2]; oral, Sprague-Dawley) was 1770 mg/kg and the LD50 ([2]; oral, gavage, Sprague-Dawley) was 1770 mg/kg.
COc1ccc(O)cc1 [4-Methoxyphenol] gave an NOAEL ([2]; developmental, dermal) of 40 mg/kg-day and an NOAEL ([2]; reproduction developmental, dermal, F) of 40 mg/kg-day.
CCCCCCC1C=CC(CCCCCCCC(=O)O)CC1C(=O)O (configuration not stated) [5(6)-Carboxy-4-hexyl-2-cyclohexene-1-octanoic acid] gave an LD50 ([2]; oral, gavage, Sprague-Dawley) of 6180 mg/kg.
In the case of O=c1c2ccccc2[nH]c2cc3c(=O)c4ccccc4[nH]c3cc12 [5,12-Dihydroquino[2,3-b]acridine-7,14-dione], the LC50 ([2]; inhalation, Crl:CD(SD)) is reported as no less than 3.1 µg/mL and the LD50 ([2]; oral, gavage, albino) is reported as no less than 7500 mg/kg.
Work on CCCCCCCC/C=C\CCCCCCCC#N [(Z)-9-Octadecenenitrile] yielded an LD50 ([2]; oral, gavage, Sprague-Dawley) greater than 5000 mg/kg.
CCCCCCCC/C=C\CCCCCCCCN [(Z)-9-Octadecenylamine] was tested, and the LD50 ([2]; oral, gavage, Sprague-Dawley) was 1180 mg/kg and 1690 mg/kg.
In the case of CCCC [Butane], the NOAEL ([2]; reproduction developmental, inhalation, Sprague-Dawley) is reported as 21400 mg/m3.

Reference: EPA's ToxValDB 9.5
